The values that follow come from patent US20250214966A1, “Crystalline Salt Form Of A SHP2 Inhibitor” (Array BioPharma Inc., priority 2022, published 2025).

Counter-ions that a name gives are not always drawn. Like-named read-outs stand apart in the source and are kept apart here.

The solubility is how much of the substance goes into solution per volume.

What all share (type): physicochemical
Series [1] is described as follows: Chemical stability (HPLC) after storage at 70° C. The protocol: Sample Preparation (Table 12): Crystalline (S)-1′-(6-((2-amino-3-chloropyridin-4-yl)thio)-1,2,4-triazin-3-yl)-1,3-dihydrospiro[indene-2,4′-piperidin]-1-amine free base hemihydrate (Form 1)—Control: Compound (15.46 mg) was weighed into a 50 mL amber volumetric flask. Methanol (approximately 35 mL) was added to the flask, sonicated 4 minutes with intermittent swirling, equilibrated to room temperature, brought to volume with methanol and mixed well with repeated inversions of the flask. Crystalline (S)-1′-(6-((2-amino-3-chloropyridin-4-yl)thio)-1,2,4-triazin-3-yl)-1,3-dihydrospiro[indene-2,4′-piperidin]-1-amine free base hemihydrate (Form 1)—70° C./5% relative humidity (“RH”)/1 week: Compound (14.83 mg) was weighed into a 50 mL amber volumetric flask. Methanol (approximately 35 mL) was added to the flask, sonicated 4 minutes with intermittent swirling, equilibrated to room temperature, brought to volume with methanol and mixed well with repeated inversions of the flask. Crystalline (S)-1′-(6-((2-amino-3-chloropyridin-4-yl)thio)-1,2,4-triazin-3-yl)-1,3-dihydrospiro[indene-2,4′-piperidin]-1-amine free base hemihydrate (Form 1)—70° C./75% RH/1 week: Compound (14.99 mg) was weighed into a 50 mL amber volumetric flask. Methanol (approximately 35 mL) was added to the flask, sonicated 4 minutes with intermittent swirling, equilibrated to room temperature, brought to volume with methanol and mixed well with repeated inversions to the flask.
Chemical stability (HPLC) (Table 12): A Waters Acquity H-Class instrument was used with a Waters XSelect HSS T3 Column (100 angstrom, 4.6×150 mm, 5 μm). The column temperature was set to 20° C., the UV wavelength set to 254 nm, the injection volume was 10 μL, with a flow rate of 1.0 mL/min. 10 mM ammonium acetate adjusted to pH 4.8 was used as a mobile phase A, and acetonitrile was used as mobile phase B. The gradient method was set up to achieve 15% mobile phase B at 0 minutes, 95% mobile phase B at 17 minutes—held until 22 minutes, 15% mobile phase.
70° C./75% RH Sample: about 20 mg of crystalline anhydrous (S)-1′-(6-((2-amino-3-chloropyridin-4-yl)thio)-1,2,4-triazin-3-yl)-1,3-dihydrospiro[indene-2,4′-piperidin]-1-amine mono succinate salt Form 1 was placed in an open amber vial in the 70° C./75% RH chamber 70° C./5% RH Sample: about 20 mg crystalline anhydrous (S)-1′-(6-((2-amino-3-chloropyridin-4-yl)thio)-1,2,4-triazin-3-yl)-1,3-dihydrospiro[indene-2,4′-piperidin]-1-amine mono succinate salt Form 1 was placed in a closed amber vial with the cap taped in a 70° C. chamber with uncontrolled humidity […]

A short description of series [2]: Grinding assessment of form and crystallinity.
Series [3] in a line: Dynamic vapor sorption, hygroscopicity (Tables 12 and 13). The note with it: DVS. The protocol: Dynamic Vapor Sorption (“DVS”) (Table 12): The microbalance was calibrated using a 100 mg standard weight. The relative humidity sensor was calibrated at 5.0, 11.3, 32.8, 52.8, 75.3, and 84.3% RH (25° C.) using saturated salt solutions, as well as 80% RH (25° C.) using polyvinylpyrrolidone. 8-10 mg of the powder sample was placed in the platinum sample pan. There is no drying step with this method. The RH is first maintained at 30% RH, then decreased to 10% RH, and then 3% RH using the criteria of moving on when the weight change of the sample was <0.001 wt % in 5 min or after reaching a maximum equilibration time of 60 minutes. […] Again, the attainment of equilibrium was assumed when the weight change of the sample was <0.001 wt % in 5 min or by a maximum equilibration time of 120 minutes.
DVS (Table 13): Water sorption and desorption were analyzed with a DVS-Resolution. The microbalance is calibrated with a 100 mg standard weight on a monthly basis. About 5 mg of API was added to a translucent sample pan and placed inside chamber A of the DVS-Resolution. Percent relative humidity was held at 0% for 1 hour, and increased to 90% in 10% increments, then ramped back to 0% in 10% increments.

Series [4] in a line: Solubility of salts in buffer systems at 37° C. (Table 14). The note with it: thermodynamic from solid, 20 mg in 1 mL. How it is done:
The solubility (Table 14) was determined by adding 20 mg of salts (Examples 3 to 8) into 3 HPLC vials, to each vial, a magnetic stirrer bar was added along with 1 mL of the appropriate buffer system (pH 1.2 HCl, pH 4.5 sodium acetate, or pH 6.8 phosphate). The samples were agitated at 37° C. for […]. After 24 hours, the slurries were isolated by centrifugation filtration and isolated mother liquors were analyzed by HPLC.
HPLC method (Table 14): A Dionex Ultimate 3000 HPLC instrument was used with a Waters XSelect HSS T3 Column (100 angstrom, 4.6×150 mm, 5 μm). The column temperature was set to 20° C., the UV wavelength set to 254 nm, the injection volume was 10 μL, with a flow rate of 1.0 mL/min. 10 mM ammonium acetate adjusted to pH 4.8 was used as a mobile phase A, and acetonitrile was used as mobile phase B. The gradient method was set up to achieve 15% mobile phase B at 0 minutes, 95% mobile phase B at 17 minutes—held until 22 minutes, 15% mobile phase B at 22.1 minutes—held until 28 minutes.

`Nc1nccc(Sc2cnc(N3CCC4(CC3)Cc3ccccc3[C@H]4N)nn2)c1Cl.Nc1nccc(Sc2cnc(N3CCC4(CC3)Cc3ccccc3[C@H]4N)nn2)c1Cl.O` [Example 2, (S)-1′-(6-((2-amino-3-chloropyridin-4-yl)thio)-1,2,4-triazin-3-yl)-1,3-dihydrospiro[indene-2,4′-piperidin]-1-amine Free Base Hemihydrate (Form 1)]: the “Chemical Stability (70° C./5% RH), decrease in purity” value in series [1] (70° C./5% RH, HPLC) is 0.25% decrease in purity. The “Chemical Stability (70° C./75% RH), decrease in purity” value in series [1] (70° C./75% RH, HPLC) amounted to 0.09% decrease in purity. Also, the “Grinding Assessment” value in series [2] is recorded as “No change in form or crystallinity”. Further, the Hygroscopity entry in series [3] is “Non-hygroscopic at 25 °C and exhibits less”.

On to `Nc1nccc(Sc2cnc(N3CCC4(CC3)Cc3ccccc3[C@H]4N)nn2)c1Cl` [Example 3, (S)-1′-(6-((2-amino-3-chloropyridin-4-yl)thio)-1,2,4-triazin-3-yl)-1,3-dihydrospiro[indene-2,4′-piperidin]-1-amine Mono Succinate Salt Form 1], for which the “Chemical Stability (70° C./5% RH), decrease in purity” value in series [1] was 0.13% decrease in purity. In series [1], the “Chemical Stability (70° C./75% RH), decrease in purity” value turned out to be 0.19% decrease in purity. Also, the “Grinding Assessment” value in series [2] was “Reduction in crystallinity”. In addition, in series [3], the Hygroscopity entry is “not hygroscopic”. Besides, the “Hygroscopity, weight gain” value in series [3] (up to 90% relative humidity) worked out at 0.9%. In addition, the solubility at 18 h is > 20000 µg/mL in series [4] (pH 1.2 HCl buffer, simulated gastric fluid, pH 1.2 HCl, read-out: Solubility pH 1.2 HCl); 200 µg/mL in series [4] (pH 4.5 sodium acetate buffer, aqueous buffer, pH 4.5 sodium acetate, read-out: Solubility pH 4.5 Sodium Acetate); 1300 µg/mL in series [4] (pH 6.8 phosphate buffer, aqueous buffer, pH 6.8 phosphate, read-out: Solubility Ph 6.8 Phosphate).
